# Measurements as given in patent EP1769804B1, “hPTH(1-34) for use in preventing or reducing the incidence or severity of vertebral and / or non vertebral fracture in a male human” (priority 1998, dated 2012).
# Marks after values point to notes of the source that are not given here.
# Tested on: Ovariectomized Primates
# Test: Cortical histomorphometry of the humerus midshaft
# Type: in vivo, Macaca fascicularis
# Details: mean ± SEM
# Description: Biomechanical tests were done on lumbar vertebrae L-3 to L-4, the femur neck, humerus midshaft, and on a cortical bone specimen machined from the femur diaphysis (measures defined in Table 2). Conventional static and dynamic histomorphometry were done (measures described in Table 6) on the humerus midshaft, lumbar vertebra L-2, femoral neck, femur midshaft, the radius midshaft and distal radius. Initial statistical analyses compared all groups to vehicle-treated ovariectomized controls. The data is suitable for additional exploratory analyses to examine dose dependency, effects of withdrawal, interactions between outcomes, and changes in time by methods known to those of skill in the art. All assays were conducted and determined by methods known in the art.
# For certain experimental subjects, cortical bone of the humerus was examined by histomorphometry and by polarized Fourier transform infrared microscopy. The Fourier transform infrared microscopy was conducted by an adaptation of known methods for such microscopy.
# [1] = PTH1-W: withdrawal after 1 µg/kg for 12 months
# [2] = PTH5-W: withdrawal after 5 µg/kg for 12 months
substance,measurement,setting,value
teriparatide [rhPTH(1-34)],MS/BS.Ps (Mineralizing periosteal surface normalized to total periosteal surface),[1],3.86 ± 4.83^a %
same,Me.Ar (Medullary cavity area),[1],16.84 ± 3.74 mm^2
same,O.Wi (Osteoid width),[1],3.96 ± 0.83 µm
same,"Po (Porosity, the percentage of bone area occupied by spaces)",[1],2.23 ± 1.60%
same,Rs.N/Ct.A (number of resorption spaces per unit cortical area),[1],0.12 ± 0.07^a #/mm^2
same,W.Wi (Osteonal wall width),[1],63.12 ± 17.35 µm
same,omt (Osteoid maturation time),[1],3.86 ± 0.74 days
same,Ac.F (Activation frequency),PTH1: 1 µg/kg for 18 months,7.69 ± 4.96 cycles/year
same,"B.Ar (Bone area, the total area within the periosteal surface)",PTH1: 1 µg/kg for 18 months,54.22 ± 5.97 mm^2
same,"BFR/BS.Ec (bone formation rate, endocortical surface referent)",PTH1: 1 µg/kg for 18 months,18.14 ± 13.95 µm/day
same,"BFR/BS.Ps (Bone formation rate, periosteal surface referent)",PTH1: 1 µg/kg for 18 months,8.53 ± 10.54 µm/day
same,"BFR/BV (Bone formation rate, bone volume referent)",PTH1: 1 µg/kg for 18 months,19.23 ± 5.93 %/year
same,Ct.Ar (Cortical area),PTH1: 1 µg/kg for 18 months,37.61 ± 3.86 mm^2
same,FP (Formation period),PTH1: 1 µg/kg for 18 months,63.44 ± 10.02 days
same,L.On.N/Ct.A (Number of fluorochrome labeled osteons per unit cortical area),PTH1: 1 µg/kg for 18 months,1.26 ± 0.71 #/mm^2
same,"MAR (Mineral apposition rate, intracortical)",PTH1: 1 µg/kg for 18 months,0.98 ± 0.12^a µm/day
same,"MAR.Ec (Mineral apposition rate, endocortical surface)",PTH1: 1 µg/kg for 18 months,0.66 ± 0.15 µm/day
same,"MAR.Ps (mineral apposition rate, periosteal surface)",PTH1: 1 µg/kg for 18 months,0.89 ± 0.95 µm/day
same,MS/BS.Ec (mineralizing endocortical surface normalized to total endocortical surface),PTH1: 1 µg/kg for 18 months,25.19 ± 17.14%
same,MS/BS.Ps (Mineralizing periosteal surface normalized to total periosteal surface),PTH1: 1 µg/kg for 18 months,8.59 ± 5.73%
same,Me.Ar (Medullary cavity area),PTH1: 1 µg/kg for 18 months,16.61 ± 3.77 mm^2
same,O.Wi (Osteoid width),PTH1: 1 µg/kg for 18 months,3.66 ± 0.67 µm
same,"Po (Porosity, the percentage of bone area occupied by spaces)",PTH1: 1 µg/kg for 18 months,4.65 ± 4.78%
same,Rs.N/Ct.A (number of resorption spaces per unit cortical area),PTH1: 1 µg/kg for 18 months,0.28 ± 0.18 #/mm^2
same,W.Wi (Osteonal wall width),PTH1: 1 µg/kg for 18 months,61.36 ± 7.79 µm
same,omt (Osteoid maturation time),PTH1: 1 µg/kg for 18 months,3.76 ± 0.70 days
same,Ac.F (Activation frequency),[2],2.05 ± 1.46^a cycles/year
same,"B.Ar (Bone area, the total area within the periosteal surface)",[2],58.16 ± 8.79^a mm^2
same,"BFR/BS.Ec (bone formation rate, endocortical surface referent)",[2],12.73 ± 16.33^a µm/day
same,"BFR/BS.Ps (Bone formation rate, periosteal surface referent)",[2],5.79 ± 4.05 µm/day
same,"BFR/BV (Bone formation rate, bone volume referent)",[2],2.21 ± 1.73^a %/year
same,Ct.Ar (Cortical area),[2],40.83 ± 5.80^a mm^2
same,FP (Formation period),[2],88.63 ± 52.90 days
same,L.On.N/Ct.A (Number of fluorochrome labeled osteons per unit cortical area),[2],0.38 ± 0.26^a #/mm^2
same,"MAR (Mineral apposition rate, intracortical)",[2],0.85 ± 0.28^a µm/day
same,"MAR.Ec (Mineral apposition rate, endocortical surface)",[2],0.63 ± 0.17 µm/day
same,"MAR.Ps (mineral apposition rate, periosteal surface)",[2],0.82 ± 0.15 µm/day
same,MS/BS.Ec (mineralizing endocortical surface normalized to total endocortical surface),[2],8.93 ± 15.39^a %
same,MS/BS.Ps (Mineralizing periosteal surface normalized to total periosteal surface),[2],2.30 ±3.76^a %
same,Me.Ar (Medullary cavity area),[2],17.34 ± 6.05 mm^2
same,O.Wi (Osteoid width),[2],3.76 ± 0.83 µm
same,"Po (Porosity, the percentage of bone area occupied by spaces)",[2],6.40 ± 4.22^a %
same,W.Wi (Osteonal wall width),[2],63.82 ± 8.31 µm
same,omt (Osteoid maturation time),[2],5.07 ± 2.65 days
same,Ac.F (Activation frequency),PTH5: 5 µg/kg for 18 months,8.70 ± 3.97 cycles/year
same,"B.Ar (Bone area, the total area within the periosteal surface)",PTH5: 5 µg/kg for 18 months,55.81 ± 6.24 mm^2
same,"BFR/BS.Ec (bone formation rate, endocortical surface referent)",PTH5: 5 µg/kg for 18 months,34.04 ± 19.01 µm/day
same,"BFR/BS.Ps (Bone formation rate, periosteal surface referent)",PTH5: 5 µg/kg for 18 months,8.99 ± 5.81 µm/day
same,"BFR/BV (Bone formation rate, bone volume referent)",PTH5: 5 µg/kg for 18 months,12.93 ± 5.94^a %/year
same,Ct.Ar (Cortical area),PTH5: 5 µg/kg for 18 months,40.96 ± 4.30^a mm^2
same,FP (Formation period),PTH5: 5 µg/kg for 18 months,81.97 ± 95.63 days
same,L.On.N/Ct.A (Number of fluorochrome labeled osteons per unit cortical area),PTH5: 5 µg/kg for 18 months,1.45 ± 0.47^a #/mm^2
same,"MAR (Mineral apposition rate, intracortical)",PTH5: 5 µg/kg for 18 months,1.03 ± 0.23 µm/day
same,"MAR.Ec (Mineral apposition rate, endocortical surface)",PTH5: 5 µg/kg for 18 months,0.75 ± 0.14 µm/day
same,"MAR.Ps (mineral apposition rate, periosteal surface)",PTH5: 5 µg/kg for 18 months,0.66 ± 0.17 µm/day
same,MS/BS.Ec (mineralizing endocortical surface normalized to total endocortical surface),PTH5: 5 µg/kg for 18 months,40.47 ± 24.68^a %
same,MS/BS.Ps (Mineralizing periosteal surface normalized to total periosteal surface),PTH5: 5 µg/kg for 18 months,11.00 ± 9.63%
same,Me.Ar (Medullary cavity area),PTH5: 5 µg/kg for 18 months,14.85 ± 4.72^a mm^2
same,O.Wi (Osteoid width),PTH5: 5 µg/kg for 18 months,3.94 ± 1.13 µm
same,"Po (Porosity, the percentage of bone area occupied by spaces)",PTH5: 5 µg/kg for 18 months,6.78 ± 4.23^a %
same,Rs.N/Ct.A (number of resorption spaces per unit cortical area),PTH5: 5 µg/kg for 18 months,0.43 ± 0.26^a #/mm^2
same,W.Wi (Osteonal wall width),PTH5: 5 µg/kg for 18 months,65.29 ± 9.43 µm
same,omt (Osteoid maturation time),PTH5: 5 µg/kg for 18 months,6.45 ± 13.85 days
